Legend:
[1] = test system: Phakopsora pachyrhizi (F129L); assay: Protective control of soybean rust on soybeans (PHAKPA P2); type: in vivo; details: for % PHAKPA (F129L) Disease level P2 at 4 ppm: protective P2, 4 ppm; for % PHAKPA (F129L) Disease level P2 at 4 ppm / % PHAKPA (F129L) Disease level P2 at 16 ppm: soybean rust F129L; for % PHAKPA (F129L) Disease level P2 at 16 ppm: protective P2, 16 ppm; for PHAKPA (F129L) Disease level (%) P2 at 4 ppm / PHAKPA (F129L) Disease level (%) P2 at 16 ppm: P2 protective, % diseased leaf area
[2] = test system: Phakopsora pachyrhizi (F129L); assay: Protective control of soybean rust on soybeans (PHAKPA P6); type: in vivo; details: for % PHAKPA (F129L) Disease level P6 at 4 ppm: protective P6, 4 ppm; for % PHAKPA (F129L) Disease level P6 at 4 ppm / % PHAKPA (F129L) Disease level P6 at 16 ppm: soybean rust F129L; for % PHAKPA (F129L) Disease level P6 at 16 ppm: protective P6, 16 ppm
[3] = P6 protective, % diseased leaf area

Row | SMILES | % PHAKPA (F129L) Disease level P2 at 4 ppm [1] [%] | % PHAKPA (F129L) Disease level P2 at 16 ppm [1] [%] | % PHAKPA (F129L) Disease level P6 at 4 ppm [2] [%] | % PHAKPA (F129L) Disease level P6 at 16 ppm [2] [%] | PHAKPA (F129L) Disease level (%) P2 at 4 ppm [1] [%] | PHAKPA (F129L) Disease level (%) P6 at 4 ppm ([2]; P6 protective, 4 ppm, % diseased leaf area) [%] | PHAKPA (F129L) Disease level (%) P2 at 16 ppm [1] [%] | PHAKPA (F129L) Disease level (%) P6 at 16 ppm [2, 3] [%]
1 | CNC(=O)/C(=N/OC)c1cccc(C)c1CO/N=C(\C)c1c(F)ccc(F)c1OC(F)(F)F [compound 346] | 4 | 0 | 5 | 0 | – | – | – | –
2 | CNC(=O)/C(=N/OC)c1cccc(C)c1CO/N=C(\C)c1c(F)cc(Br)cc1OC(F)(F)F [compound 355] | 34 | 7 | 48 | 4 | – | – | – | –
3 | CCc1cc(/C(C)=N/OCc2c(C)cccc2/C(=N\OC)C(=O)OC)cc(C(F)(F)F)c1 [compound 146] | 73 | 12 | 77 | 48 | – | – | – | –
4 | CNC(=O)/C(=N/OC)c1cccc(C)c1CO/N=C(\C)c1ccc(OC)cc1 [compound 164] | 5 | 0 | 27 | 0 | – | – | – | –
5 | CO/N=C(/C(=O)OC)c1cccc(C)c1CO/N=C(\C)c1ccc(Br)cc1 [compound 114] | 38 | 5 | 52 | 15 | – | – | – | –
6 | CNC(=O)/C(=N/OC)c1cccc(C)c1CO/N=C(\C)c1ccc(Cc2ccccc2)cc1OC(F)(F)F [compound 419] | 40 | 18 | 60 | 12 | – | – | – | –
7 | CO/N=C(/C(=O)OC)c1cccc(C)c1CO/N=C(\C)c1cccc(C2CC2(Cl)Cl)c1 (stereo not shown) [compound 74] | 27 | 6 | 16 | 3 | – | – | – | –
8 | CNC(=O)/C(=N/OC)c1cccc(C)c1CO/N=C(\C)c1cccc(CC2COC2)c1 [compound 161] | 100 | 100 | 100 | 90 | – | – | – | –
9 | CCc1ccc(/C(C)=N/OCc2ccccc2/C(=N\OC)C(=O)NC)cc1 [reference compound] | – | – | – | – | 35 | 83 | – | –
10 | CNC(=O)/C(=N/OC)c1cccc(C)c1CO/N=C(\C)c1cc(C(F)(F)F)cc(C(F)(F)F)c1 [compound 32] | 80 | 50 | 73 | 43 | – | – | – | –
11 | CO/N=C(/C(=O)OC)c1cccc(C)c1CO/N=C(\C)c1ccc(Oc2ccc(Cl)cc2)cc1C(F)(F)F [compound 335] | 77 | 53 | 80 | 25 | – | – | – | –
12 | CNC(=O)/C(=N/OC)c1cccc(C)c1CO/N=C(\C)c1ccc(F)c(F)c1OC(F)(F)F [compound 451] | 1 | 0 | 2 | 0 | – | – | – | –
13 | CO/N=C(/C(=O)OC)c1cccc(C)c1CO/N=C(\C)c1cc(Br)cc(Br)c1 [compound 135] | 15 | 1 | 16 | 2 | – | – | – | –
14 | CO/N=C(/C(=O)OC)c1cccc(C)c1CO/N=C(\C)c1ccc(C#N)cc1 [Ex. 155] | 97 | 30 | 93 | 20 | – | – | 23 | 18
15 | CNC(=O)/C(=N/OC)c1cccc(C)c1CO/N=C(\C)c1ccc(F)cc1CC(F)(F)F [compound 394] | 9 | 3 | 12 | 2 | – | – | – | –
16 | CO/N=C(/C(=O)OC)c1cccc(C)c1CO/N=C(/c1cccc(C)c1)C1CC1 [drawing 971, reference compound] | – | – | – | – | 80 | – | – | 37
17 | CNC(=O)/C(=N/OC)c1cccc(C)c1CO/N=C(/c1cccc(C)c1)C1CC1 [drawing 975, reference compound] | – | – | – | – | 67 | – | – | 67
18 | CNC(=O)/C(=N/OC)c1ccccc1CO/N=C(/c1ccc(F)cc1)C(F)F [reference compound] | – | – | – | – | – | – | 15 | 15
19 | CNC(=O)/C(=N/OC)c1cccc(C)c1CO/N=C(\C)c1ccc(C)c(C(F)(F)F)c1 [compound 230] | 22 | 1 | 73 | 4 | – | – | – | –
20 | CO/N=C(/C(=O)OC)c1cccc(C)c1CO/N=C(\C)c1c(F)cccc1F [compound 213] | 50 | 3 | 40 | 11 | – | – | – | –
21 | CNC(=O)/C(=N/OC)c1ccccc1CO/N=C(\C)c1ccccc1Br [reference compound] | – | – | – | – | – | – | 23 | 28
22 | CO/C=C(/C(=O)OC)c1cccc(C)c1CO/N=C(\C)c1c(Cl)ccc(F)c1OC(F)(F)F [compound 442] | 100 | 93 | 80 | 77 | – | – | – | –
23 | CO/N=C(/C(=O)OC)c1cccc(C)c1CO/N=C(\C)c1cccc(C(C)(C)C)c1 [compound 96] | 6 | 1 | 3 | 0 | – | – | – | –
24 | CC/C(=N\OCc1c(C)cccc1/C(=N\OC)C(=O)NC)c1ccccc1C(F)(F)F [compound 189] | 82 | 28 | 97 | 37 | – | – | – | –
25 | CNC(=O)/C(=N/OC)c1cccc(C)c1CO/N=C(\C)c1cccc(OC)c1 [compound 79] | 21 | 2 | 44 | 4 | – | – | – | –
26 | CNC(=O)/C(=N/OC)c1cccc(C)c1CO/N=C(\C)c1ccccc1CC(F)(F)F [compound 223] | 4 | 0 | 28 | 0 | – | – | – | –
27 | CO/N=C(/C)c1ccccc1/C(C)=N/OCc1c(C)cccc1/C(=N\OC)C(=O)OC [compound 187] | 100 | 100 | 90 | 90 | – | – | – | –

— patent US20230172204A1 (BASF SE, priority 2020, published 2023)
